Source: US20140171434A1, “SUBSTITUTED IMIDAZOPYRIDINES AND IMIDAZOPYRIDAZINES AND THE USE THEREOF” (BAYER PHARMA AKTIENGESSELLSCHAFT, priority 2011, published 2014)
pIC50: −log10 of the molar value.

Legend:
[1] = system: recombinant guanylate cyclase reporter cell line; assay: Effect on a recombinant guanylate cyclase reporter cell line; assay type: cell-based
Method: The cellular activity of the compounds according to the invention is determined using a recombinant guanylate cyclase reporter cell line, as described in F. Wunder et al., Anal. Biochem. 339, 104-112 (2005).

rabbit aorta rings = assay: Vasorelaxant action in vitro (phenylephrine-contracted rabbit aorta rings); details: Oryctolagus cuniculus, phenylephrine contraction, 0.1% DMSO, read-out: IC50 (concentration needed to reduce the phenylephrine contraction by 50%)
Method: Rabbits are stunned by a blow to the neck and exsanguinated. The aorta is removed, freed from adhering tissue and divided into rings of a width of 1.5 mm. The rings are placed individually under an initial tension in 5 ml organ baths with Krebs-Henseleit solution which is at 37° C., is gassed with carbogen and has the following composition (in each case mM): sodium chloride 119; potassium chloride: 4.8; calcium chloride dihydrate: 1; magnesium sulfate heptahydrate: 1.4; potassium dihydrogenphosphate: 1.2; sodium bicarbonate: 25; glucose: 10. The contractile force is determined with Statham UC2 cells, amplified and digitalized using A/D transducers (DAS 1802 HC, Keithley Instruments Munich), and recorded in parallel on linear recorders. To obtain a contraction, phenylephrine is added to the bath cumulatively in increasing concentration. After several control cycles, the substance to be investigated is added in each further run in increasing dosage in each case, and the height of the contraction achieved is compared with the height of the contraction reached in the last preceding run. This is used to calculate the concentration needed to reduce the magnitude of the control value by 50% (IC50 value). The standard administration volume is 5 μl; the DMSO content in the bath solution corresponds to 0.1%.

[2] = Pharmacokinetic parameters following intravenous administration to rats; assay type: in vivo, male Wistar rats; details: rat, 0.3 mg/kg intravenous; for MRT / half-life: male, Wistar, plasma; for MRT: read-out: Mean residence time; for half-life: read-out: Terminal half-life (converted)
Method: The pharmacokinetic parameters of the compounds of the formula (I) according to the invention are determined in male Wistar rats. The administration volume is 5 ml/kg. Intravenous administration is by means of a species-specific plasma/DMSO formulation (99/1). The taking of blood from rats is simplified by inserting a silicone catheter into the right Vena jugularis externa prior to substance administration. The surgical intervention takes place one day prior to the experiment with isofluran anesthesia and administration of an analgetic (atropine/rimadyl (3/1) 0.1 ml s.c.). Substance administration is as an i.v. bolus. Removal of blood from the rats is after 0.033, 0.083, 0.17, 0.5, 1, 2, 3, 4, 6, 8, 24 and 27 hours. The blood is removed into heparinized tubes. The blood plasma is then obtained by centrifugation; if required, it can be stored at −20° C. until further processing.
An internal standard (ZK 228859) is added to the samples of the compounds of the formula (I) according to the invention, calibration samples and QCs, and the protein is precipitated using excess acetonitrile. After addition of an ammonium acetate buffer (0.01 M, pH 6.8) and subsequent vortexing, the mixture is centrifuged at 1000 g and the supernatant is examined by LC-MS/MS (API 4000, AB Sciex). Chromatographic separation is carried out on an Agilent 1100-HPLC. The injection volume is 20 μl. The separation column used is a Phenomenex Gemini 5μ C18 110A 50×3 mm, adjusted to a temperature of 40° C. A binary mobile phase gradient at 500 μl/min is used (A: 0.01M ammonium acetate buffer pH 6.8, B: 0.1% formic acid in acetonitrile): 0 min (90% A), 1 min (90% A), 3 min (10% A), 4 min (10% A), 4.50 min (90% A), 6 min (90% A). The temperature of the Turbo V ion source is 400° C. The following MS instrument parameters are used: curtain gas 15 units, ion spray voltage 4.8 kV, gas 1 50 units, gas 2 40 units, CAD gas 8 units. The substances are quantified by peak heights or areas using extracted ion chromatograms of specific MRM experiments.
The plasma concentration/time plots determined are used to calculate the pharmacokinetic parameters such as AUC, Cmax, t1/2 (terminal half life), MRT (mean residence time) and CL (clearance), using the validated pharmacokinetic calculation program KinEx (Vers.3).
Since the substance quantification is performed in plasma, it is necessary to determine the blood/plasma distribution of the substance in order to be able to adjust the pharmacokinetic parameters correspondingly. For this purpose, a defined amount of substance is incubated in heparinized whole blood of the species in question in a rocking roller mixer for 20 min. After centrifugation at 1000 g, the plasma concentration is measured (see above) and determined by calculating the quotient of the cblood/cplasma values.
Following intravenous administration of 0.3 mg/kg of representative compounds according to the invention to rats, the data listed in Table 3 were obtained: […]

Row | pIC50 (rabbit aorta rings) | MRT [2] [h] | half-life [2] [h] | CLblood [2] [L/h/kg] | Structure (SMILES) | MEC (minimum effective concentration) [1] [µM]
1 | 7.38 | – | – | – | CC1(C)C(=O)Nc2nc(-c3nc(Cc4ccccc4F)n4ncccc34)nnc21 [Example 4, 3-[7-(2-Fluorobenzyl)imidazo[1,5-b]pyridazin-5-yl]-7,7-dimethyl-5,7-dihydro-6H-pyrrolo[2,3-e][1,2,4]triazin-6-one] | 0.03
2 | 7.14 | – | – | – | CC1(C)C(=O)Nc2nc(-c3nc(Cc4ccccc4F)n4ncccc34)ncc21 [Example 3, 2-[7-(2-Fluorobenzyl)imidazo[1,5-b]pyridazin-5-yl]-5,5-dimethyl-5,7-dihydro-6H-pyrrolo[2,3-d]pyrimidin-6-one] | 0.03

Second part, the compound before the results:

Row | Structure (SMILES) | pIC50 (rabbit aorta rings) | MRT [2] [h] | half-life [2] [h] | CLblood [2] [L/h/kg] | MEC (minimum effective concentration) [1] [µM]
3 | CC1(C)C(=O)Nc2nc(-c3nc(Cc4c(F)ccc(F)c4F)n4cc(Cl)ccc34)ncc21 [Example 7, 2-[6-Chloro-3-(2,3,6-trifluorobenzyl)imidazo[1,5-a]pyridin-1-yl]-5,5-dimethyl-5,7-dihydro-6H-pyrrolo[2,3-d]pyrimidin-6-one] | – | – | – | – | 0.01
4 | CC1(C)C(=O)Nc2nc(-c3nc(CCC(F)(F)C(F)(F)F)n4cc(F)ccc34)nnc21 [Example 12, 3-[6-Fluoro-3-(3,3,4,4,4-pentafluorobutyl)imidazo[1,5-a]pyridin-1-yl]-7,7-dimethyl-5,7-dihydro-6H-pyrrolo[2,3-e][1,2,4]triazin-6-one] | 6.56 | 4.6 | 5.2 | 0.16 | 1.0
5 | CC1(C)C(=O)Nc2nc(-c3nc(Cc4c(F)ccc(F)c4F)n4cc(Cl)ccc34)nnc21 [Example 11, 3-[6-Chloro-3-(2,3,6-trifluorobenzyl)imidazo[1,5-a]pyridin-1-yl]-7,7-dimethyl-5,7-dihydro-6H-pyrrolo[2,3-e][1,2,4]triazin-6-one] | 7.52 | 9.4 | 7.2 | 0.03 | 0.03
6 | CC1(C)C(=O)Nc2nc(-c3nc(Cc4ccccc4F)n4ncccc34)nc(I)c21 [Example 1, 2-[7-(2-Fluorobenzyl)imidazo[1,5-b]pyridazin-5-yl]-4-iodo-5,5-dimethyl-5,7-dihydro-6H-pyrrolo[2,3-d]pyrimidin-6-one] | – | – | – | – | 0.1
